Measurements reported in patent US20100274050A1, “SOLID MILNACIPRAN AND PROCESS FOR THE PREPARATION OF THE SAME” (Glenmark Generics Limited, priority 2009, published 2010).
Counter-ions that a name gives are not always drawn.

Assay: Bulk density / tapped density (tapped density tester ETD-1020)
Type: physicochemical
From the text: The bulk density used tapped density tester dual-platform ETD-1020 (Electrolab). System specifications. Speed: nominal rate of 300 taps per minute, Accuracy: Actual setting ±1 tap, Drop height: 14±2 mm. Platform rotation: 5-15 rotations/minute.

In the case of CCN(CC)C(=O)C1(c2ccccc2)CC1CN (stereo not shown) [milnacipran hydrochloride, Milnacipran hydrochloride], the Tapped density is reported as “Tapped density = 0.43 g/ml”.
